Data taken from USRE48461E1, “Modulation of androgen receptor expression” (Ionis Pharmaceuticals, Inc., priority 2012, dated 2021).
Oligonucleotides are written 5' to 3', each unit as a sugar letter and its base; * is a phosphorothioate linkage, no mark a phosphodiester; rarer units and linkages stand in square brackets, end groups in braces. Plain capitals give the bases only. k = constrained ethyl (cEt); d = 2'-deoxy (DNA)

Tests used:
Type in all cases: cell-based, human
[1] = system: total AR mRNA; assay: Total (full-length) AR mRNA in C4-2B MR cells, free uptake; conditions: free uptake, 24 hrs
Method in brief: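 Cells grown in RPMI1640 with 10% FBS received antisense oligonucleotides at 0.04, 0.20, 1.00 and 5.00 μM in the medium by free uptake, no transfection agent. After 24 hrs, total AR mRNA quantified by real-time qPCR with primer probe set RTS3559.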

[2] = system: KLK2 mRNA; assay: KLK2 mRNA (AR target gene) in C4-2B MR cells
[3] = system: C4-2B MR cells; assay: Proliferation of MDV3100-resistant C4-2B cells (CellTiter 96); conditions: 6 days
Method in brief: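 Antisense oligonucleotides were added to the culture medium at 0.04, 0.20, 1.00 and 5.00 μM, with a non-targeting oligonucleotide as negative control. After 6 days of treatment, proliferation was read with CellTiter 96 AQueous One. Values are percent inhibition relative to untreated cells.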

[4] = system: AR mRNA; assay: AR mRNA levels in LMR20 cells (with/without DHT or R1881); conditions: LMR20 cells; for AR mRNA levels (% baseline value) after treatment with DHT: DHT 10 nM 72 hrs; for AR mRNA levels (% baseline value) after treatment with R1881: R1881 10 nM 72 hrs; for AR mRNA levels (% baseline value) of cells without AR agonist treatment: no AR agonist
Method: LMR20 cells were plated at 1,500 cells per well in phenol red-free medium with CSS.

549458 (kG*kT*kT*dG*dA*dT*dT*dT*dA*dA*dT*dG*dG*kT*kT*kG) [compound 549458]
Percent inhibition of full-length AR mRNA in C4-2B MR cells ([1]; 0.04 μM): 41% | Percent inhibition of full-length AR mRNA in C4-2B MR cells ([1]; 0.20 μM): 78% | Percent inhibition of full-length AR mRNA in C4-2B MR cells ([1]; 1.00 μM): 94% | Percent inhibition of full-length AR mRNA in C4-2B MR cells ([1]; 5.00 μM): 97% | Percent inhibition of KLK2 mRNA in C4-2B MR cells ([2]; 0.04 μM): 35% | Percent inhibition of KLK2 mRNA in C4-2B MR cells ([2]; 0.20 μM): 47% | Percent inhibition of KLK2 mRNA in C4-2B MR cells ([2]; 1.00 μM): 87% | Percent inhibition of KLK2 mRNA in C4-2B MR cells ([2]; 5.00 μM): 93% | Percent inhibition of C4-2B MR cell proliferation ([3]; 0.04 μM): 8% | Percent inhibition of C4-2B MR cell proliferation ([3]; 0.20 μM): 16% | Percent inhibition of C4-2B MR cell proliferation ([3]; 1.00 μM): 41% | Percent inhibition of C4-2B MR cell proliferation ([3]; 5.00 μM): 56% | AR mRNA levels (% baseline value) after treatment with DHT ([4]; ASO 0.04 μM): 91 % baseline value | AR mRNA levels (% baseline value) after treatment with DHT ([4]; ASO 0.20 μM): 66 % baseline value | AR mRNA levels (% baseline value) after treatment with DHT ([4]; ASO 1.0 μM): 34 % baseline value | AR mRNA levels (% baseline value) after treatment with DHT ([4]; ASO 5.0 μM): 31 % baseline value | AR mRNA levels (% baseline value) after treatment with R1881 ([4]; ASO 0.04 μM): 88 % baseline value | AR mRNA levels (% baseline value) after treatment with R1881 ([4]; ASO 0.20 μM): 56 % baseline value | AR mRNA levels (% baseline value) after treatment with R1881 ([4]; ASO 1.0 μM): 25 % baseline value | AR mRNA levels (% baseline value) after treatment with R1881 ([4]; ASO 5.0 μM): 32 % baseline value | AR mRNA levels (% baseline value) of cells without AR agonist treatment ([4]; ASO 0.04 μM): 101 % baseline value | AR mRNA levels (% baseline value) of cells without AR agonist treatment ([4]; ASO 0.20 μM): 75 % baseline value | AR mRNA levels (% baseline value) of cells without AR agonist treatment ([4]; ASO 1.0 μM): 30 % baseline value | AR mRNA levels (% baseline value) of cells without AR agonist treatment ([4]; ASO 5.0 μM): 25 % baseline value
